Measured values published in paper PMC10914731, “Homo-BacPROTAC-induced degradation of ClpC1 as a strategy against drug-resistant mycobacteria” (Nature Communications, 2024).
In brackets after ≈: the same amount, converted by molar mass. Several values for one entry are separate records, joined by “and”; a condition that tells them apart may be missing. Identical values can stand only once. Like-named read-outs stand apart in the source and are kept apart here.

Key:
[1] = Hepatocyte stability, mice; assay type: in vitro ADME; settings: clearance in hepatocytes
Procedure, shortened: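 1 µM cpd (DMSO <0.05% final), cryopreserved hepatocytes ~1e6 cells/mL, 50% serum, pH 7.4, 37 °C/5–10% CO2; up to 6 h, 6 timepoints; ACN quench, HPLC-MS/MS; t1/2 → CL via well-stirred model, % Qh.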

in vitro = settings: human; for Papp A→B: apical to basolateral
Procedure, shortened: (§1)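 Values are bidirectional Caco-2 apparent permeabilities, P(A−B) and P(B−A), given in 10^-6 cm s-1. The efflux ratio divides P(B−A) by P(A−B), and intrinsic permeability averages the two directions.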

Caco-2 monolayers = assay: in vitro; settings: mean value of P(A−B) and P(B−A)
Procedure, shortened: as §1

[2] = tested on: M. tuberculosis H37Rv (ATCC 27294); assay: microbe, parasite or virus in culture; assay type: cell-based
Msm 607 = assay: microbe, parasite or virus in culture; assay type: cell-based
[3] = tested on: Mtb (katG del) ATCC 35822; assay: microbe, parasite or virus in culture; assay type: cell-based
Msm #607 = assay: Minimum bactericidal concentration (MBC), Msm #607; assay type: cell-based, Mycobacterium smegmatis; settings: Mycolicibacterium smegmatis
Mycobacterium avium = assay: microbe, parasite or virus in culture; assay type: cell-based
Mtb ATCC 35825 = assay: microbe, parasite or virus in culture; assay type: cell-based
Staphylococcus aureus = assay: MIC ESKAPES panel, Staphylococcus aureus; assay type: cell-based; settings: Staphylococcus aureus
Method: (§2) Minimum inhibitory concentration (MIC) against ESKAPES panel of Gram positive and Gram negative pathogens (Enterococcus faecium, Staphylococcus aureus, Klebsiella pneumoniae, Acinetobacter baumannii, Pseudomonas aeruginosa, Enterobacter cloacae and Salmonella typhimurium [ESKAPES panel]) were determined at the FNDR by the standard broth dilution method [CLSI, M100]. […] Mueller Hinton broth (MHB) medium was used to grow ESKAPES panel strains. The individual cultures were added as 200 μL (inoculum of 3–7 × 10^5 cfu/ml) to the respective assay plates in each well to all columns, except the media control (200 μL of medium). […] The assay plates were incubated at 37 °C, and the results were noted on the 2nd day as turbidometric readout. The clear wells indicated inhibition of growth, while the turbid wells indicated uninhibited growth.

Mtb # 8673 = assay: microbe, parasite or virus in culture; assay type: cell-based
Pseudomonas aeruginosa = assay: MIC ESKAPES panel, Pseudomonas aeruginosa; assay type: cell-based; settings: Pseudomonas aeruginosa
Method: as §2

In the case of `CO[C@H](c1ccccc1)[C@@H]1NC(=O)[C@H](C)NC(=O)[C@H](C[C@@H](C)CO)N(C)C(=O)[C@H](Cc2cn(Cc3cn(CCOCCn4cc(Cn5cc(C[C@@H]6NC(=O)[C@H](C(C)C)NC(=O)[C@H](CC(C)C)N(C)C(=O)[C@H](C(C)C)NC(=O)[C@H]([C@H](OC)c7ccccc7)NC(=O)[C@H](C)NC(=O)[C@H](C[C@@H](C)CO)N(C)C6=O)c6ccccc65)nn4)nn3)c3ccccc23)NC(=O)[C@H](C(C)C)NC(=O)[C@H](CC(C)C)N(C)C(=O)[C@H](C(C)C)NC1=O` [Compound 6], the “Hepatocyte Mice” value [1] is reported as 15 %Qh, the Papp A→B (in vitro; Caco-2, CACO permeability PEAB) is reported as < 2.6 ×10⁻⁶ cm/s and the Papp A→B (in vitro; Caco-2, Caco-2 permeability P (A-B)) is reported as < 1.7 ×10⁻⁶ cm/s. For the same compound, the Papp B→A (in vitro; Caco-2, Caco-2 permeability P (B-A), basolateral to apical) was 2.4 ×10⁻⁶ cm/s, the “Caco-2 Int. Perm” value (Caco-2 monolayers) was 2.1 10-6 cm s-1 and the MIC ([2]; Mycobacterium tuberculosis, M. tuberculosis H37Rv strain, read-out: MIC Mtb H37Rv Mean ± SD) was 0.4 ± 0.3 µM (≈ 0.815 µg/mL). For the same compound, the MIC ([2]; Mycobacterium tuberculosis, Mtb H37Rv (Supplementary Table 2), read-out: MIC Mtb) was 0.4 ± 0.3 µM (≈ 0.815 µg/mL), the MIC ([2]; individual measurements (source data), read-out: Mtb MIC) was 0.390 µM and 0.780 µM and 0.097 µM and 0.195 µM and the MIC (Msm 607; Mycolicibacterium smegmatis, 607, read-out: MIC Msm 607) was 2.3 ± 0.9 µM (≈ 4.69 µg/mL).
Work on `COc1c(N2C[C@@H]3CCCN[C@@H]3C2)c(F)cc2c(=O)c(C(=O)O)cn(C3CC3)c12` [Moxifloxacin, reference compound] yielded an MIC ([3]; M. tuberculosis ATCC 35822, single well replicates) of 0.31 µM (≈ 0.124 µg/mL), an MIC ([3]; Mycobacterium tuberculosis, ATCC35822, M. tuberculosis ATCC 35822, single well replicates) of 0.31 µM (≈ 0.124 µg/mL) and an MIC ([3]; Mycobacterium tuberculosis, ATCC35822, Mtb (katG del) ATCC 35822, mean ± SD, n = 3 well replicates) of 0.3 µM (≈ 0.12 µg/mL). For the same compound, the MBC (Msm #607; ATCC607, read-out: MBC (from Set 3) Msm ATCC 607) was 0.13 µg/mL and 0.31 µM, the MBC (Msm #607; read-out: MBC Msm #607, individual example) was 0.3 µM and 0.1 µg/mL and the “MIC (µg/ml) Mycobacterium avium” value (Mycobacterium avium; Experiment 2, three replicate columns) was 1 µg/mL (≈ 2.49 µM). The MIC (Mycobacterium avium; Experiment 2, three replicate columns, read-out: MIC (µM) Mycobacterium avium) was 2.49 µM, the MIC (Mycobacterium avium; Mycobacterium avium, Experiment 1, read-out: MIC Mycobacterium avium) was 2.49 µM and 1 µg/mL and the MIC (Mycobacterium avium; Mycobacterium avium, Experiment 2, three replicate columns, read-out: MIC (µM) Mycobacterium avium) was 2.49 µM. The MIC (Mycobacterium avium; Mycobacterium avium, Experiment 2, three replicate columns, read-out: MIC (µg/ml) Mycobacterium avium) was 1 µg/mL, the MIC (Mycobacterium avium; Mycobacterium avium, mean ± SD, read-out: MIC Mycobacterium avium) was 2.5 µM and the MIC (Mtb ATCC 35825; Mycobacterium tuberculosis, ATCC35825, mean, n = 2 well replicates) was 0.1 µM and 0.1 µg/mL. For the same compound, the MIC (Mtb ATCC 35825; Mycobacterium tuberculosis, ATCC35825, single well replicates) was 0.06 µg/mL and 0.15 µM, the MIC (Mtb ATCC 35825; single well replicates) was 0.15 µM (≈ 0.0602 µg/mL) and the “MIC Mtb ATCC 35825” value (Mtb ATCC 35825; single well replicates) was 0.06 µg/mL (≈ 0.149 µM). For the same compound, the MIC (Staphylococcus aureus; Gram positive, n = 3 well replicates) was 0.3 µM (≈ 0.12 µg/mL), the MIC (Staphylococcus aureus; Gram-Positive Bacteria, replicates 1-3) was 0.31 µM and 0.125 µg/mL and the MIC (Mtb # 8673; Mycobacterium tuberculosis, mean, n = 2 well replicates) was 0.1 µM and 0.1 µg/mL. For the same compound, the MIC (Mtb # 8673; Mycobacterium tuberculosis, single well replicates) was 0.15 µM and 0.06 µg/mL, the MIC (Mtb # 8673; single well replicates) was 0.15 µM (≈ 0.0602 µg/mL) and the “MIC Mtb # 8673” value (Mtb # 8673; single well replicates) was 0.06 µg/mL (≈ 0.149 µM). For the same compound, the MIC (Pseudomonas aeruginosa; Gram negative, n = 3 well replicates) was 2.5 µM (≈ 1 µg/mL), the MIC (Pseudomonas aeruginosa; Gram-Negative Bacteria, replicates 1-3) was 2.49 µM and 1 µg/mL and the MIC ([2]; M. tuberculosis H37Rv 27294, single well replicates, read-out: MIC) was 0.16 µM (≈ 0.0642 µg/mL). For the same compound, the MIC ([2]; Mycobacterium tuberculosis, M. tuberculosis H37Rv 27294, single well replicates, read-out: MIC) was 0.16 µM (≈ 0.0642 µg/mL), the MIC ([2]; Mycobacterium tuberculosis, Mtb H37Rv, mean ± SD, n = 3 well replicates, read-out: MIC) was 0.2 µM (≈ 0.0803 µg/mL) and the MIC ([2]; Mycobacterium tuberculosis, Set 1, read-out: MIC (Mtb H37Rv) Set 1) was 0.07 µM and 0.03 µg/mL. The MIC ([2]; Mycobacterium tuberculosis, Set 2, read-out: MIC (Mtb H37Rv) Set 2) was 0.15 µM and 0.06 µg/mL, the MIC ([2]; Mycobacterium tuberculosis, Set 3, done at a different day than Set 1 and Set 2, read-out: MIC (Mtb H37Rv) Set 3) was 0.07 µM and 0.03 µg/mL and the MIC ([2]; Mycobacterium tuberculosis, individual example (Supplementary Table 11), read-out: MIC Mtb H37Rv) was 0.1 µM and 0.03 µg/mL. The MIC ([2]; Mycobacterium tuberculosis, mean of 3 experiments +/- SD, unit taken from the sets above in the same table, read-out: MIC data (Mtb H37Rv) (+/- SD)) was 0.1 µM and 0.04 µg/mL, the MIC (Msm 607; Mycolicibacterium smegmatis, 607, read-out: MIC Msm #607, individual example (Supplementary Table 11)) was 0.1 µM and 0.1 µg/mL and the MIC (Msm 607; Mycolicibacterium smegmatis, ATCC607, Set-3, done at a different day than Set 1 and Set 2, read-out: MIC (Msm ATCC607) Set-3) was 0.15 µM and 0.06 µg/mL. The MIC (Msm 607; Mycolicibacterium smegmatis, ATCC607, mean of 3 experiments ± SD, read-out: MIC including standard deviations (Msm ATCC607)) was 0.015 µM and 0.06 µg/mL, the MIC (Msm 607; Mycolicibacterium smegmatis, ATCC607, read-out: MIC (Msm ATCC607) Set-1) was 0.15 µM and 0.06 µg/mL and the MIC (Msm 607; Mycolicibacterium smegmatis, ATCC607, read-out: MIC (Msm ATCC607) Set-2) was 0.15 µM and 0.06 µg/mL.
